This note sets out measurements from US20200399243A1, “NOVEL COMPOUNDS” (Inflazome Limited, priority 2018, published 2020).

Structures can show the parent of a compound that is named as a salt.

T1 sequence (Q96P20 whole entry): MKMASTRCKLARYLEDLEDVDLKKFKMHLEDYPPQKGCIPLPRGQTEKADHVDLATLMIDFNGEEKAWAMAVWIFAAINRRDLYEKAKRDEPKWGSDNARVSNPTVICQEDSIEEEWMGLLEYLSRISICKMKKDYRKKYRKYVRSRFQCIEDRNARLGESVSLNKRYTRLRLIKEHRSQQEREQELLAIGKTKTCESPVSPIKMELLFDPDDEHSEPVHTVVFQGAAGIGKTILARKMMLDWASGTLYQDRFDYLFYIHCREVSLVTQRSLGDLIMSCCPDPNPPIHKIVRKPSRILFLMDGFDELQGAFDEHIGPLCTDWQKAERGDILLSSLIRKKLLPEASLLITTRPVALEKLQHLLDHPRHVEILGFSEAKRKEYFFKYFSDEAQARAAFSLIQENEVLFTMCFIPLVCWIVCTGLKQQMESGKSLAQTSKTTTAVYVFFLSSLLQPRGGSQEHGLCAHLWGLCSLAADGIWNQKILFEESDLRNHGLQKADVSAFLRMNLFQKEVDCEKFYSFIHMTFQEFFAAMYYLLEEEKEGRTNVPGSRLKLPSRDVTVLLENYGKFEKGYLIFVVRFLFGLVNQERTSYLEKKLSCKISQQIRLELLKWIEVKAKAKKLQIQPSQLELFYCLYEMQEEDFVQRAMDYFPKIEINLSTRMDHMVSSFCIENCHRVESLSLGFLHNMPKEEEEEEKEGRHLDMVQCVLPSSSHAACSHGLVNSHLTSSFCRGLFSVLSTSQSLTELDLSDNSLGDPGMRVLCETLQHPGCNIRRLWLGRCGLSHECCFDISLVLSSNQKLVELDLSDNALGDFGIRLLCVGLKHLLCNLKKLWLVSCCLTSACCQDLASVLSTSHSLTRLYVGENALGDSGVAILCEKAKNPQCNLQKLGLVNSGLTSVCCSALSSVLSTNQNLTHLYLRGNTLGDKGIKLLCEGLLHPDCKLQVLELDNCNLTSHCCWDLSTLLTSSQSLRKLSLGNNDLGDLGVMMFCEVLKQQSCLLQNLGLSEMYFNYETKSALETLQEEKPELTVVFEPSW

The experiment addresses T1, NLRP3 (Homo sapiens, UniProt Q96P20).
T1 construct: Seed THP-1 cells (25,000 cells/well) containing 1.0 μg/ml LPS in 40 μl of RPMI medium; host or cells: THP-1 cells
Briefly: THP-1 cells pyroptosis assay. Type of experiment: cell-based. The conditions noted are these: 1.0 μg/ml LPS, compound 3 hrs, nigericin 5 μM 1 hr, resazurin readout. The method, then: THP-1 cells (ATCC # TIB-202) were grown in RPMI containing L-glutamine (Gibco #11835) supplemented with 1 mM sodium pyruvate (Sigma # S8636) and penicillin (100 units/ml)/streptomycin (0.1 mg/ml) (Sigma # P4333) in 10% Fetal Bovine Serum (FBS) (Sigma # F0804). The cells were routinely passaged and grown to confluency (˜10^6 cells/ml). On the day of the experiment, THP-1 cells were harvested and resuspended into RPMI medium (without FBS). The cells were then counted and viability (>90%) checked by Trypan blue (Sigma # T8154). Appropriate dilutions were made to give a concentration of 625,000 cells/ml. To this diluted cell solution was added LPS (Sigma # L4524) to give a 1 μg/ml Final Assay Concentration (FAC). 40 μl of the final preparation was aliquoted into each well of a 96-well plate. The plate thus prepared was used for compound screening. The following method step-by-step assay was followed for compound screening. • 1. Seed THP-1 cells (25,000 cells/well) containing 1.0 μg/ml LPS in 40 μl of RPMI medium (without FBS) in 96-well, black walled, clear bottom cell culture plates coated with poly-D-lysine (VWR #734-0317) • 2. Add 5 μl compound (8 points half-log dilution, with 10 μM top dose) or vehicle (DMSO 0.1% FAC) to the appropriate wells • 3. Incubate for 3 hrs at 37° C., 5% CO2 • 4. Add 5 μl nigericin (Sigma # N7143) (FAC 5 μM) to all wells • 5. Incubate for 1 hr at 37° C., 5% CO2 • 6. At the end of the incubation period, spin plates at 300×g for 3 mins and remove supernatant 7. Then add 50 μl of resazurin (Sigma # R7017) (FAC 100 μM resazurin in RPMI medium without FBS) and incubate plates for a further 1-2 hrs at 37° C. and 5% CO2 • 8. Plates were read in an Envision reader at Ex 560 nm and Em 590 nm • 9. IC50 data is fitted to a non-linear regression equation (log inhibitor vs response-variable slope 4-parameters) The results of the pyroptosis assay are summarised in Table 2 below as THP IC50.
`CC(C)n1nc(S(=O)(=O)NC(=O)Cc2c3c(cc4c2CCC4)CCC3)cc1CN(C)C` [Example 1, N-((5-((Dimethylamino)methyl)-1-isopropyl-1H-pyrazol-3-yl)sulfonyl)-2-(1,2,3,5,6,7-hexahydro-s-indacen-4-yl)acetamide]: the IC50 (as a rule, the concentration that gives 50% inhibition) lay within 1 to 5 µM.
To `CC(C)c1cc(F)cc(C(C)C)c1CC(=O)NS(=O)(=O)c1cc(C(=O)N(C)C)n(C)n1` [Example 2, 3-(N-(2-(4-Fluoro-2,6-diisopropylphenyl)acetyl)sulfamoyl)-N,N,1-trimethyl-1H-pyrazole-5-carboxamide] belongs 1 to 5 µM; to `CC(c1cc(S(=O)(=O)NC(=O)Cc2c3c(cc4c2CCC4)CCC3)nn1C(C)C)N(C)C` (stereo not drawn) [Example 3, N-((5-(1-(Dimethylamino)ethyl)-1-isopropyl-1H-pyrazol-3-yl)sulfonyl)-2-(1,2,3,5,6,7-hexahydro-s-indacen-4-yl)acetamide], 1 to 5 µM.
Next, `COc1cc(-c2cc(F)cc(C(C)C)c2CC(=O)NS(=O)(=O)c2cc(C(=O)N(C)C)n(C)n2)ccn1` [Example 4, 3-(N-(2-(4-Fluoro-2-isopropyl-6-(2-methoxypyridin-4-yl)phenyl)acetyl)sulfamoyl)-N,N,1-trimethyl-1H-pyrazole-5-carboxamide, potassium salt]: ≤ 1 µM.
To `CC(C)c1cc(F)cc(-c2cccnc2)c1CC(=O)NS(=O)(=O)c1cc(C(=O)N(C)C)n(C)n1` [Example 5, 3-(N-(2-(4-Fluoro-2-isopropyl-6-(pyridin-3-yl)phenyl)acetyl)sulfamoyl)-N,N,1-trimethyl-1H-pyrazole-5-carboxamide] belongs 1 to 5 µM; to `CC(C)c1cc(F)cc(-c2ccncc2)c1CC(=O)NS(=O)(=O)c1cc(C(=O)N(C)C)n(C)n1` [Example 6, 3-(N-(2-(4-Fluoro-2-isopropyl-6-(pyridin-4-yl)phenyl)acetyl)sulfamoyl)-N,N,1-trimethyl-1H-pyrazole-5-carboxamide, potassium salt], 1 to 5 µM.
With `CC(C)c1cc(F)cc(-c2ccncc2)c1CC(=O)NS(=O)(=O)c1ccn(C(C)(C)CN(C)C)n1` [Example 7, N-((1-(1-(Dimethylamino)-2-methylpropan-2-yl)-1H-pyrazol-3-yl)sulfonyl)-2-(4-fluoro-2-isopropyl-6-(pyridin-4-yl)phenyl)acetamide, potassium salt], the concentration for half-maximal inhibition (IC50) is 1 to 5 µM.
`COc1cc(-c2cc(F)cc(C(C)C)c2CC(=O)NS(=O)(=O)c2cc(CN(C)C)n(C)n2)ccn1` [Example 8, N-((5-((Dimethylamino)methyl)-1-methyl-1H-pyrazol-3-yl)sulfonyl)-2-(4-fluoro-2-isopropyl-6-(2-methoxypyridin-4-yl)phenyl) acetamide, potassium salt] gave an IC50 of 1 to 5 µM.
Next, `CC(c1cc(S(=O)(=O)NC(=O)Cc2c3c(cc4c2CCC4)CCC3)nn1C1CC1)N(C)C` (stereo not drawn) [Example 9, N-((1-Cyclopropyl-5-(1-(dimethylamino)ethyl)-1H-pyrazol-3-yl)sulfonyl)-2-(1,2,3,5,6,7-hexahydro-s-indacen-4-yl)acetamide]: 1 to 5 µM; `CC(C)c1cc(F)cc(C(C)C)c1CC(=O)NS(=O)(=O)c1cc(CN(C)C)n(C2CC2)n1` [Example 10, N-((1-Cyclopropyl-5-((dimethylamino)methyl)-1H-pyrazol-3-yl)sulfonyl)-2-(4-fluoro-2,6-diisopropylphenyl)acetamide]: 1 to 5 µM; `CC(c1cc(S(=O)(=O)NC(=O)Cc2c3c(cc4c2CCC4)CCC3)nn1C)N(C)C` (stereo not drawn) [Example 11, N-((5-(1-(Dimethylamino)ethyl)-1-methyl-1H-pyrazol-3-yl)sulfonyl)-2-(1,2,3,5,6,7-hexahydro-s-indacen-4-yl)acetamide]: 1 to 5 µM.
To `CN(C)C(=O)c1cc(S(=O)(=O)NC(=O)Cc2c3c(cc4c2CCC4)CCC3)nn1C` [Example 12, 3-(N-(2-(1,2,3,5,6,7-Hexahydro-s-indacen-4-yl)acetyl)sulfamoyl)-N,N,1-trimethyl-1H-pyrazole-5-carboxamide] belongs 5 to 10 µM; to `CN(C)CC(C)(C)n1ccc(S(=O)(=O)NC(=O)Cc2c3c(cc4c2CCC4)CCC3)n1` [Example 13, N-((1-(1-(Dimethylamino)-2-methylpropan-2-yl)-1H-pyrazol-3-yl)sulfonyl)-2-(1,2,3,5,6,7-hexahydro-s-indacen-4-yl)acetamide], 5 to 10 µM.
`COc1cc(-c2ccc3c(c2CC(=O)NS(=O)(=O)c2cc(C(=O)N(C)C)n(C)n2)CCC3)ccn1` [Example 14, 3-(N-(2-(5-(2-Methoxypyridin-4-yl)-2,3-dihydro-1H-inden-4-yl)acetyl)sulfamoyl)-N,N,1-trimethyl-1H-pyrazole-5-carboxamide] gave an IC50 of 5 to 10 µM.
To `CN(C)C(=O)c1cc(S(=O)(=O)NC(=O)Cc2c(-c3ccnc(C#N)c3)ccc3c2CCC3)nn1C` [Example 15, 3-(N-(2-(5-(2-Cyanopyridin-4-yl)-2,3-dihydro-1H-inden-4-yl)acetyl)sulfamoyl)-N,N,1-trimethyl-1H-pyrazole-5-carboxamide] belongs 1 to 5 µM; to `CC(C)c1cc(F)cc(C(C)C)c1CC(=O)NS(=O)(=O)c1ccn(CCN(C)C)n1` [Example 16, N-((1-(2-(Dimethylamino)ethyl)-1H-pyrazol-3-yl)sulfonyl)-2-(4-fluoro-2,6-diisopropylphenyl)acetamide], 5 to 10 µM.
For the molecule `CC(C)c1cc(F)cc(-c2ccncc2)c1CC(=O)NS(=O)(=O)c1cc(CN(C)C)n(C)n1` [Example 17, N-((5-((Dimethylamino)methyl)-1-methyl-1H-pyrazol-3-yl)sulfonyl)-2-(4-fluoro-2-isopropyl-6-(pyridin-4-yl)phenyl)acetamide], the IC50 was 1 to 5 µM.
Next, `COc1cc(-c2cc(F)cc(C(C)C)c2CC(=O)NS(=O)(=O)c2ccn(C(C)(C)CN(C)C)n2)ccn1` [Example 18]: 1 to 5 µM.
